Experiments:
Format in all cases: in vivo
[1] = system: giant foxtail (Setaria faberii); assay: Test A preemergence; conditions: for Foxtail, Giant plant response rating (0 to 100 scale): Preemergence, 0 is no effect, 100 is complete control
From the text: (§1) Seeds of plant species selected from barnyardgrass (Echinochloa crus-galli), Kochia (Kochia scoparia), ragweed (common ragweed, Ambrosia elatior), ryegrass, Italian (Italian ryegrass, Lolium multiflorum), crabgrass, large (Digitaria sanguinalis), giant foxtail (Setaria faberii), green foxtail (Setaria viridis), morningglory (Ipomoea spp.), pigweed (Amaranthus retroflexus), velvetleaf (Abutilon theophrasti), wheat (Triticum aestivum), and corn (Zea mays) were planted into a blend of loam soil and sand and treated preemergence with a directed soil spray using test chemicals formulated in anon-phytotoxic solvent mixture which included a surfactant.
(§2) At the same time, plants selected from these crop and weed species and also blackgrass (Alopecurus myosuroides), and Galium (catchweed bedstraw, Galium aparine) were planted in pots containing the same blend of loam soil and sand and treated with postemergence applications of test chemicals formulated in the same manner. Plants ranged in height from 2 to 10 cm and were in the one- to two-leaf stage for the postemergence treatment. Treated plants and untreated controls were maintained in a greenhouse for approximately 10 d, after which time all treated plants were compared to untreated controls and visually evaluated for injury. Plant response ratings, summarized in Table A, are based on a 0 to 100 scale where 0 is no effect and 100 is complete control. A dash (-) response means no test result.

[2] = system: barnyardgrass (Echinochloa crus-galli); assay: Test A preemergence; conditions: for Barnyardgrass plant response rating (0 to 100 scale): Preemergence, 0 is no effect, 100 is complete control
From the text: as §1, §2

[3] = system: ragweed (common ragweed, Ambrosia elatior); assay: Test A preemergence; conditions: for Ragweed plant response rating (0 to 100 scale): Preemergence, 0 is no effect, 100 is complete control
From the text: as §1, §2

[4] = system: pigweed (Amaranthus retroflexus); assay: Test A preemergence; conditions: for Pigweed plant response rating (0 to 100 scale): Preemergence, 0 is no effect, 100 is complete control
From the text: as §1, §2

[5] = system: ryegrass, Italian (Italian ryegrass, Lolium multiflorum); assay: Test A preemergence; conditions: for Ryegrass, Italian plant response rating (0 to 100 scale): Preemergence, 0 is no effect, 100 is complete control
From the text: as §1, §2

[6] = system: Kochia (Kochia scoparia); assay: Test A preemergence; conditions: for Kochia plant response rating (0 to 100 scale): Preemergence, 0 is no effect, 100 is complete control
From the text: as §1, §2

[7] = system: giant foxtail (Setaria faberii); assay: Test A postemergence; conditions: postemergence; for Plant response rating, Foxtail, Giant: 0 to 100 scale, 0 no effect, 100 complete control
From the text: as §1, §2

[8] = system: barnyardgrass (Echinochloa crus-galli); assay: Test A postemergence
From the text: as §1, §2

[9] = system: ragweed (common ragweed, Ambrosia elatior); assay: Test A postemergence; conditions: postemergence; for Plant response rating, Ragweed: 0 to 100 scale, 0 no effect, 100 complete control
From the text: as §1, §2

[10] = system: pigweed (Amaranthus retroflexus); assay: Test A postemergence; conditions: postemergence; for Plant response rating, Pigweed: 0 to 100 scale, 0 no effect, 100 complete control
From the text: as §1, §2

[11] = system: corn (Zea mays); assay: Test A postemergence; conditions: postemergence; for Plant response rating, Corn: 0 to 100 scale, 0 no effect, 100 complete control
From the text: as §1, §2

[12] = system: Galium (catchweed bedstraw, Galium aparine); assay: Test A postemergence; conditions: postemergence; for Plant response rating, Galium: 0 to 100 scale, 0 no effect, 100 complete control
From the text: as §1, §2

[13] = system: ryegrass, Italian (Italian ryegrass, Lolium multiflorum); assay: Test A postemergence; conditions: postemergence; for Plant response rating, Ryegrass, Italian: 0 to 100 scale, 0 no effect, 100 complete control
From the text: as §1, §2

[14] = system: blackgrass (Alopecurus myosuroides); assay: Test A postemergence
From the text: as §1, §2

[15] = system: wheat (Triticum aestivum); assay: Test A postemergence; conditions: postemergence; for Plant response rating, Wheat: 0 to 100 scale, 0 no effect, 100 complete control
From the text: as §1, §2

[16] = system: Kochia (Kochia scoparia); assay: Test A postemergence; conditions: postemergence; for Plant response rating, Kochia: 0 to 100 scale, 0 no effect, 100 complete control
From the text: as §1, §2

[17] = 125 g ai/ha, preemergence, 0 to 100 scale (0 no effect, 100 complete control)
[18] = 125 g ai/ha, visual injury rating on 0 to 100 scale (0 no effect, 100 complete control), approx. 10 d
[19] = 500 g ai/ha, postemergence, 0 to 100 scale, 0 no effect, 100 complete control
[20] = Postemergence, 125 g ai/ha, visual injury, 0 to 100 scale (0 no effect, 100 complete control), approx. 10 d
[21] = 1000 g ai/ha, postemergence, 0 to 100 scale, 0 no effect, 100 complete control

For `O=C1NCC(c2cccc(O)c2)C1C(=O)Nc1cccc(F)c1F` (racemic) [Compound 384], the “Plant response rating, Foxtail, Giant” value [1, 17] was 0, the “Foxtail, Giant plant response rating (0 to 100 scale)” value ([1]; 500 g ai/ha) was 0 and the “Plant response rating, Barnyardgrass” value [2, 17] was 0. The “Barnyardgrass plant response rating (0 to 100 scale)” value ([2]; 500 g ai/ha) was 0, the “Plant response rating, Ragweed” value [3, 17] was 0 and the “Ragweed plant response rating (0 to 100 scale)” value ([3]; 500 g ai/ha) was 0. For the same molecule, the “Plant response rating, Pigweed” value [4, 17] was 0, the “Pigweed plant response rating (0 to 100 scale)” value ([4]; 500 g ai/ha) was 0 and the “Plant response rating, Ryegrass, Italian” value [5, 17] was 0. The “Ryegrass, Italian plant response rating (0 to 100 scale)” value ([5]; 500 g ai/ha) was 0, the “Plant response rating, Kochia” value [6, 17] was 0 and the “Kochia plant response rating (0 to 100 scale)” value ([6]; 500 g ai/ha) was 0. For the same molecule, the “Foxtail, Giant plant response rating” value [7, 18] was 0, the “Plant response rating, Foxtail, Giant” value ([7]; 500 g ai/ha) was 0 and the “Plant response rating, Barnyardgrass” value [8, 19] was 0. For the same molecule, the “Plant response rating, Barnyardgrass” value [8, 20] was 0, the “Ragweed plant response rating” value [9, 18] was 0 and the “Plant response rating, Ragweed” value ([9]; 500 g ai/ha) was 0. For the same molecule, the “Pigweed plant response rating” value [10, 18] was 0, the “Plant response rating, Pigweed” value ([10]; 500 g ai/ha) was 0 and the “Corn plant response rating” value [11, 18] was 0. The “Plant response rating, Corn” value ([11]; 500 g ai/ha) was 0, the “Galium plant response rating” value [12, 18] was 0 and the “Plant response rating, Galium” value ([12]; 500 g ai/ha) was 0. For the same molecule, the “Ryegrass, Italian plant response rating” value [13, 18] was 0, the “Plant response rating, Ryegrass, Italian” value ([13]; 500 g ai/ha) was 0 and the “Plant response rating, Blackgrass” value [14, 19] was 0. The “Plant response rating, Blackgrass” value [14, 20] was 0, the “Wheat plant response rating” value [15, 18] was 0 and the “Plant response rating, Wheat” value ([15]; 500 g ai/ha) was 0. The “Kochia plant response rating” value [16, 18] was 0 and the “Plant response rating, Kochia” value ([16]; 500 g ai/ha) was 0.
For `O=C(Nc1cccc(F)c1F)C1C(=O)N(CC=Cc2ccccc2)CC1c1cc(F)cc(F)c1` (stereo not drawn) [Compound 511], the “Foxtail, Giant plant response rating (0 to 100 scale)” value ([1]; 1000 g ai/ha) was 90, the “Barnyardgrass plant response rating (0 to 100 scale)” value ([2]; 1000 g ai/ha) was 90 and the “Ragweed plant response rating (0 to 100 scale)” value ([3]; 1000 g ai/ha) was 0. For the same molecule, the “Pigweed plant response rating (0 to 100 scale)” value ([4]; 1000 g ai/ha) was 0, the “Ryegrass, Italian plant response rating (0 to 100 scale)” value ([5]; 1000 g ai/ha) was 0 and the “Kochia plant response rating (0 to 100 scale)” value ([6]; 1000 g ai/ha) was 0. The “Plant response rating, Foxtail, Giant” value ([7]; 1000 g ai/ha) was 90, the “Plant response rating, Barnyardgrass” value [8, 21] was 90 and the “Plant response rating, Ragweed” value ([9]; 1000 g ai/ha) was 0. The “Plant response rating, Pigweed” value ([10]; 1000 g ai/ha) was 0, the “Plant response rating, Corn” value ([11]; 1000 g ai/ha) was 0 and the “Plant response rating, Galium” value ([12]; 1000 g ai/ha) was 0. The “Plant response rating, Ryegrass, Italian” value ([13]; 1000 g ai/ha) was 0, the “Plant response rating, Blackgrass” value [14, 21] was 20 and the “Plant response rating, Wheat” value ([15]; 1000 g ai/ha) was 0. The “Plant response rating, Kochia” value ([16]; 1000 g ai/ha) was 0.

— patent US12077503B2, “Substituted cyclic amides and their use as herbicides” (FMC CORPORATION, priority 2015, dated 2024)
